This passage reports Ki results from article PMC10065284, “Protease inhibition, in vitro antibacterial and IFD/MM-GBSA studies of ciprofloxacin-based acetanilides” (PLOS ONE, 2023).

This test deals with T1, serine protease.
T1 construct: purified serine protease, indigenously isolated from B. subtilis sp
In words: casein hydrolysis assay with purified protease, inhibition kinetics. The test is classed as biochemical, Bacillus subtilis.

Broadly, the Ki is a measure of affinity in units of concentration, obtained from inhibition or displacement. A lower Ki goes with a stronger hold on the target.

With `COC(=O)c1cn(C2CC2)c2cc(N3CCN(CC(=O)Nc4ccccc4)CC3)c(F)cc2c1=O` [4a, methyl 1-cyclopropyl-6-fluoro-4-oxo-7-(4-(2-oxo-2-(phenylamino)ethyl)piperazin-1-yl)-1,4-dihydro-quinoline-3-carboxylate], the Ki was 100 nM.
